{"source": "ChEMBL document CHEMBL1148108", "about": "“Prenylated isoflavonoids from the root bark of Erythrina vogelii” (J Nat Prod, 2002)", "note": "Calls of active or inactive are those of the source. No cut-off for these calls is given here."}
{"system": "Cladosporium cucumerinum", "assay": "Antifungal activity against Cladosporium cucumerinum by TLC biautography assay", "format": "functional, organism-based"}
{"compound": "CC(C)=CCc1cc(-c2coc3cc(O)cc(O)c3c2=O)cc2c1OC(C)(C)C(O)C2", "note": "(configuration not stated)", "Activity": "inactive"}
{"compound": "CC1(C)Oc2ccc(-c3coc4cc(O)cc(O)c4c3=O)cc2C[C@@H]1O", "Activity": "inactive"}
{"compound": "CC(C)=CCc1c(O)cc2occ(-c3ccc4c(c3)C=CC(C)(C)O4)c(=O)c2c1O", "Activity": "inactive"}
{"compound": "CC(C)=CCc1c(O)cc(O)c2c(=O)c(-c3ccc4c(c3)C=CC(C)(C)O4)coc12", "Activity": "inactive"}
{"compound": "COc1ccc([C@@H]2COc3cc(O)c(CC=C(C)C)c(O)c3C2=O)cc1CC=C(C)C", "Activity": "inactive"}
{"compound": "COc1cc(O)c(CC=C(C)C)cc1-c1coc2cc(O)cc(O)c2c1=O", "Activity": "inactive"}
{"compound": "C/C(=C\\Cc1cc(-c2coc3cc(O)cc(O)c3c2=O)ccc1O)CO", "Activity": "inactive"}
